Assay results as given in the OPERA property sets (Mansouri et al. 2018).

| SMILES | logP |
| --- | --- |
| O=C(CCN1CCC(O)(c2ccc(Cl)cc2)CC1)c1ccc(F)cc1 | 3.24 |
| Cc1cccc(C)c1NC(=O)CCCC(C)N (stereo not given) | 1.41 |
| CC(C)(C)c1cccc(C2C(=O)c3ccccc3C2=O)c1 | 4.88 |
| CCCc1ccc(N)cc1 | 2.4 |
| CC(=O)OCC1OC(n2ccc(N)nc2=O)C(OC(C)=O)C1OC(C)=O (stereo not given) | -0.8 |
| O=C(Cc1ccccc1)c1ccc2n1CCC2C(=O)O (stereo not given) | 2.52 |
| O=CC1=CC=C2C(C(=O)O)CCN2c2cc(Br)ccc21 (stereo not given) | 3.6 |
| CCc1nc(N)nc(N)c1-c1ccc(Cl)c(Cl)c1 | 3.03 |
| COc1c(Br)cc(Br)cc1Br | 4.48 |
| CCn1c(=O)[nH]c(=O)c2[nH]cnc21 | -0.11 |
| CN1CCC(=C2c3ccccc3C=Cc3ccccc32)CC1 | 4.69 |
| C=C(C)C(=O)OCC(O)COc1ccccc1 (stereo not given) | 2.27 |
| CCCN(C(C)=O)C(C)C | 1.48 |
| CC(=O)Nc1c(I)c(C(=O)N(C)CC(O)CO)c(I)c(C(=O)N(C)CC(O)CO)c1I (stereo not given) | -2.71 |
| O=C(NN1CC=CCC1)c1cccs1 | 1.88 |
| CC(=O)Nc1nc(NCC(O)CO)c(Cl)nc1[N+](=O)[O-] (stereo not given) | 0 |
| Cc1cc(Cl)cc(C)c1NC1=NCCN1 | 2.5 |
| ClC(Cl)=C(c1ccc(Cl)cc1)c1ccc(Cl)cc1 | 6.51 |
| CCNCC(=O)Nc1c(C)cccc1C | 1.32 |
| COc1ncnc2c1ncn2C1OC(CO)C(OC(=O)Cc2ccccc2)C1OC(=O)Cc1ccccc1 (stereo not given) | 3.48 |
| CCN1CC(C(O)C(CC2CCCCC2)NC(=O)C(Cc2cc[nH]n2)NC(=O)C(CC(=O)N2CCOCC2)Cc2ccccc2)OC1=O (stereo not given) | 2.49 |
| Cc1cc2ccccc2o1 | 3.22 |

| SMILES | logP |
| --- | --- |
| CCCCCCC(C)=NNC(=N)N | 2.08 |
| C#CCC(O)(c1cccnc1)C1CCCCC1 (stereo not given) | 2.09 |
| O=c1ccccc(O)c1 | 0.81 |
| CCN(CC)C(C)C(=O)Nc1c(C)cccc1C (stereo not given) | 2.73 |
| O=C(CN1CCCC1)NCc1ccccc1 | 1.69 |
| Cc1nc2n(c(=O)c1C)CCCC2 | 0.6 |
| CCCCCc1ccc(CC(=O)O)cc1 | 3.75 |
| Fc1cccc(N=C2NCCN2)c1Cl | 1.52 |
| CC/C=C\C/C=C\C/C=C\CCCCCCCC(=O)O | 6.46 |
| CCOc1ccc(Cc2cnc(N)nc2N)cc1OC | 1.34 |
| CC1CCCc2nccc(=O)n21 (stereo not given) | 0.3 |
| CC(=O)OC1CC2C(CCC3CC(OC4CC(O)C(OC5CC(O)C(OC6CC(O)C(O)C(C)O6)C(C)O5)C(C)O4)CCC32C)C2(O)CCC(C3=CC(=O)OC3)C12C (stereo not given) | 2.29 |
| O=C1CC(Oc2ccc(C(=O)CCc3ccccc3)cc2)N1 (stereo not given) | 2.48 |
| O=C(COc1ccc(OCCNCC(O)COc2ccccc2)cc1)N1CCc2ccccc2C1 (stereo not given) | 3.6 |
| CCCCCCC(C)(C)c1cc(O)c2c(c1)OC(C)(C)C1CCC(CO)=CC21 (stereo not given) | 7.83 |
| CC(C)N1C(=O)SC(=Cc2ccc([N+](=O)[O-])o2)C1=O | 2.42 |
| C=CC1CCC2OC2C1 (stereo not given) | 2.08 |
| CC1(C)[C@@H](O[C@H]2O[C@H](C(=O)O)[C@@H](O)[C@H](O)[C@H]2O[C@@H]2O[C@H](C(=O)O)[C@@H](O)[C@H](O)[C@H]2O)CC[C@]2(C)[C@H]3C(=O)C=C4[C@@H]5C[C@@](C)(C(=O)O)CC[C@]5(C)CC[C@@]4(C)[C@]3(C)CC[C@@H]12 | 2.8 |
| Nc1ccc(S(=O)(=O)Nc2ccccc2[N+](=O)[O-])cc1 | 2.11 |
| c1ccc2c(c1)ccc1cccnc12 | 3.43 |
| N=C(N)NN=Cc1ccccc1 | 1.18 |
| CCCCCCCCCCC(=O)O | 4.42 |

| SMILES | logP |
| --- | --- |
| CCc1ccc(C2C(=O)c3ccccc3C2=O)cc1 | 3.92 |
| O=C(Cn1ccnc1[N+](=O)[O-])N(CCO)CCO | -1.64 |
| Cc1c2ccccc2c(C)c2ccccc12 | 5.69 |
| CCN(CC)CC(=O)NCc1ccccc1 | 2.14 |
| NCCc1cnc[nH]1 | -0.7 |
| O=C1c2ccccc2C(=O)C1c1ccc(Cl)cc1 | 3.61 |
| Nc1nc(N)c2nc(-c3ccc(O)cc3)c(N)nc2n1 | 0.92 |
| CCOP(=O)(Cc1ccc(-c2nc3ccccc3s2)cc1)OCC | 3.5 |
| CCCCOCC(O)Cn1ccnc1[N+](=O)[O-] (stereo not given) | 1.11 |
| CCCCC(CCCC)C(=O)O | 3.2 |
| COc1cccc2c1C(=O)c1c(O)c3c(c(O)c1C2=O)CC(O)(C(C)=O)CC3OC1CC(N2CCOCC2)C(O)C(C)O1 (stereo not given) | 2.31 |
| CN(C)CCC(c1ccccc1)c1ccc(C(C)(C)C)cc1 (stereo not given) | 5.1 |
| COc1ccc(Cc2cnc(N)nc2N)cc1C(C)C | 2.79 |
| CCOc1cc(Cc2cnc(N)nc2N)ccc1OC | 1.2 |
| CCN1CC(C(O)C(CC2CCCCC2)NC(=O)C(Cc2cnc[nH]2)NC(=O)C(Cc2ccc(OC)cc2)NC(=O)N2CCOCC2)OC1=O (stereo not given) | 2.11 |
| O=C1CCc2ccccc2N1 | 1.34 |
| COc1c(OC)c(OC(C)=O)c2cc(NC(C)=O)ccc2c1OC(C)=O | 2 |
| COc1cccc2c1C(=O)c1c(O)c3c(c(O)c1C2=O)C[C@@](O)(C(C)=O)C[C@@H]3O[C@H]1C[C@H](N)[C@H](O)[C@H](C)O1 | 1.83 |
| CCC(C(=O)OCc1ccc(C)cc1)C(COC(=O)c1ccccc1)Cc1cncn1C (stereo not given) | 4.85 |
| CCCCc1ccncc1 | 3.13 |
| CCCCC(O)C(=O)O (stereo not given) | 0.81 |
